As a reminder, the IC50 is the concentration that inhibits the measured activity by half. Broadly, the inhibition in vivo is how much of the control response was suppressed. The inhibition is the share of the control response that was lost under treatment.

A value given as a limit tells only on which side of the number the result lay.

The record followed here is ChEMBL document CHEMBL4184310, “Structure-based design and structure-activity relationships of 1,2,3,4-tetrahydroisoquinoline derivatives as potential PDE4 inhibitors” (Bioorg Med Chem Lett, 2018).

Series [1] concerns the target 3',5'-cyclic-AMP phosphodiesterase 4B (Homo sapiens, UniProt Q07343). Kind of series: Inhibition of human U937 cells-derived PDE4B using [3H]-cAMP as substrate after 30 mins.
Series [2] concerns the target 3',5'-cyclic-AMP phosphodiesterase 4D (Homo sapiens, UniProt Q08499). In words: Inhibition of human U937 cells-derived PDE4D using [3H]-cAMP as substrate after 30 mins.
Series [3] is described as follows: Inhibition of PDE4 in human PBMC assessed as reduction in LPS-stimulated TNFalpha release preincubated for 30 mins followed by LPS stimulation for 18 hrs by TR-FRET assay. It counts as cell-based. For orientation: In TR-FRET formats the signal depends on donor and acceptor labels being close together.
Another series concerns Rattus norvegicus. Kind of series: Anti-inflammatory activity in Sprague-Dawley rat model of LPS-induced asthma/COPD assessed as inhibition of neutrophilia in BALF at 10 mg/kg, po administered 30 mins prior to LPS challenge for 40 mins relative to control. The format is functional.
The test system of a further series is Mus musculus. In words: Anti-inflammatory activity in Swiss albino mouse model of sepsis assessed as inhibition of LPS-induced TNFalpha release at 10 mg/kg, po administered 30 mins prior to LPS challenge for 90 mins by ELISA relative to control. The format is functional. In general terms: ELISA stands for enzyme-linked immunosorbent assay.
Series [4] has as its target T1, cGMP-dependent 3',5'-cyclic phosphodiesterase (Homo sapiens, UniProt O00408). Kind of series: Inhibition of human PDE2A.
The target in series [5] is T2, Dual specificity calcium/calmodulin-dependent 3',5'-cyclic nucleotide phosphodiesterase 1A (Homo sapiens, UniProt P54750). In words: Inhibition of human PDE1A at 50 uM relative to control.
T2 sequence (P54750 whole entry): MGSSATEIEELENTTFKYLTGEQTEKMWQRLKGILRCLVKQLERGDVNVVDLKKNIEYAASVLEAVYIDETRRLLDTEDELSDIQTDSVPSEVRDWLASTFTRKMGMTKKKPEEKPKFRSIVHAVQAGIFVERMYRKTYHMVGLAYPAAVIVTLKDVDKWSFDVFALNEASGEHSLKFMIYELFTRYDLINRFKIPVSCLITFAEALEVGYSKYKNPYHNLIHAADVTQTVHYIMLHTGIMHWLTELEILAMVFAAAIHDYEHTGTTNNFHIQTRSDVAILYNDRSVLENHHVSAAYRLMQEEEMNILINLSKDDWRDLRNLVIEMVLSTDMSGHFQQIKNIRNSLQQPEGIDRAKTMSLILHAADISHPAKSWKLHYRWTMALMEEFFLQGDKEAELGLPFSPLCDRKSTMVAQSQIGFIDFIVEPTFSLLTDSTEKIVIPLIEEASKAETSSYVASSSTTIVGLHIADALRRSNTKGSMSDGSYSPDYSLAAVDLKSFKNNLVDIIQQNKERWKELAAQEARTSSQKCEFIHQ
For series [6], the target named is T3, Cone cGMP-specific 3',5'-cyclic phosphodiesterase subunit alpha' (Homo sapiens, UniProt P51160). In words: Inhibition of human PDE6C.
For series [7], the target named is T4, cAMP and cAMP-inhibited cGMP 3',5'-cyclic phosphodiesterase 10A (Homo sapiens, UniProt Q9Y233). In words: Inhibition of human PDE10A2 at 50 uM relative to control.
T4 sequence (Q9Y233 whole entry): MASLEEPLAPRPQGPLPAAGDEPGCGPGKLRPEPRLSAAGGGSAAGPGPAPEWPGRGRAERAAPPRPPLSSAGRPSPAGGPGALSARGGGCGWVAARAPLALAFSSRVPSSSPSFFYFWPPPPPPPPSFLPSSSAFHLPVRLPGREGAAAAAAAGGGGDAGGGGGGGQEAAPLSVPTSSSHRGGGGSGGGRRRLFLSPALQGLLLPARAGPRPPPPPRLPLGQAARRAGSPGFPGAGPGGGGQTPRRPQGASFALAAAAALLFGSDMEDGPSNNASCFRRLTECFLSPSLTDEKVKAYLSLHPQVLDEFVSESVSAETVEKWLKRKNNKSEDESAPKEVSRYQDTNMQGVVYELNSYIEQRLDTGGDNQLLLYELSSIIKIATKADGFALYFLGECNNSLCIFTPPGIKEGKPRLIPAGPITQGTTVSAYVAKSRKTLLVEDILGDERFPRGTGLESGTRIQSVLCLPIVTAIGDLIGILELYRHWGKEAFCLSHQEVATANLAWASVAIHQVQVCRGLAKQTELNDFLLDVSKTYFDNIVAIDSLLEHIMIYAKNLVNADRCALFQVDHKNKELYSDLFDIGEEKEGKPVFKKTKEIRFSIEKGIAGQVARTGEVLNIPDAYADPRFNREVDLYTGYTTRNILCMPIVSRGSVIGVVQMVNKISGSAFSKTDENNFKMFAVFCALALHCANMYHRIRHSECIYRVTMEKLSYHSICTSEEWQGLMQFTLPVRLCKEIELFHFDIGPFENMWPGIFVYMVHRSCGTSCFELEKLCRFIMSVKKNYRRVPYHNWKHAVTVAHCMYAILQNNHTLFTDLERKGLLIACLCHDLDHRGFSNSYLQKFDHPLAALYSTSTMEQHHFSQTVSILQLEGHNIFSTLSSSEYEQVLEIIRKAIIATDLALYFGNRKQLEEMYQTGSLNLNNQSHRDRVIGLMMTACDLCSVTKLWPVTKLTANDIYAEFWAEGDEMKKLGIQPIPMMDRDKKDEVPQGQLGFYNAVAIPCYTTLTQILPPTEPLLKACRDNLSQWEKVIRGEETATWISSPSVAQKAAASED
In series [8] the target is T5, cGMP-specific 3',5'-cyclic phosphodiesterase (Homo sapiens, UniProt O76074). Kind of series: Inhibition of human PDE5A at 50 uM relative to control.
In series [9] the target is T5, cGMP-specific 3',5'-cyclic phosphodiesterase. Kind of series: Inhibition of human PDE5A.
Series [10] has as its target T1, cGMP-dependent 3',5'-cyclic phosphodiesterase. Kind of series: Inhibition of human PDE2A at 50 uM relative to control.
The target of series [11] is T2, Dual specificity calcium/calmodulin-dependent 3',5'-cyclic nucleotide phosphodiesterase 1A. In words: Inhibition of human PDE1A.
Series [12] has as its target T3, Cone cGMP-specific 3',5'-cyclic phosphodiesterase subunit alpha'. In words: Inhibition of human PDE6C at 50 uM relative to control.
In series [13] the target is T6, High affinity 3',5'-cyclic-AMP phosphodiesterase 7A (Homo sapiens, UniProt Q13946). Kind of series: Inhibition of human PDE7A.
T6 sequence (Q13946 whole entry): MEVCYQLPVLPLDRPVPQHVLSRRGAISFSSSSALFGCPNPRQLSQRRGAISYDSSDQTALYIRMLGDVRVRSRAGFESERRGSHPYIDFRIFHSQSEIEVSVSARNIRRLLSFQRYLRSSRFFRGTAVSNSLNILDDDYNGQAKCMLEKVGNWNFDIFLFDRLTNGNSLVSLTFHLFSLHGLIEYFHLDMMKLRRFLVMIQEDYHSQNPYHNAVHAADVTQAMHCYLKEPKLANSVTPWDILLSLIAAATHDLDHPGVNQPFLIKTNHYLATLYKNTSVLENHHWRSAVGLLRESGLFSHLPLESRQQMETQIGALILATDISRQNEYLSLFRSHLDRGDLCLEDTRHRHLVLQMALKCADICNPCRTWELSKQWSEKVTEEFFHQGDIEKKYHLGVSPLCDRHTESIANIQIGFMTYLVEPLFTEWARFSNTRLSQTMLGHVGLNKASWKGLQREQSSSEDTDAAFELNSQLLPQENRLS
The target in series [14] is T7, High affinity cGMP-specific 3',5'-cyclic phosphodiesterase 9A (Homo sapiens, UniProt O76083). Kind of series: Inhibition of human PDE9A2.
T7 sequence (O76083 whole entry): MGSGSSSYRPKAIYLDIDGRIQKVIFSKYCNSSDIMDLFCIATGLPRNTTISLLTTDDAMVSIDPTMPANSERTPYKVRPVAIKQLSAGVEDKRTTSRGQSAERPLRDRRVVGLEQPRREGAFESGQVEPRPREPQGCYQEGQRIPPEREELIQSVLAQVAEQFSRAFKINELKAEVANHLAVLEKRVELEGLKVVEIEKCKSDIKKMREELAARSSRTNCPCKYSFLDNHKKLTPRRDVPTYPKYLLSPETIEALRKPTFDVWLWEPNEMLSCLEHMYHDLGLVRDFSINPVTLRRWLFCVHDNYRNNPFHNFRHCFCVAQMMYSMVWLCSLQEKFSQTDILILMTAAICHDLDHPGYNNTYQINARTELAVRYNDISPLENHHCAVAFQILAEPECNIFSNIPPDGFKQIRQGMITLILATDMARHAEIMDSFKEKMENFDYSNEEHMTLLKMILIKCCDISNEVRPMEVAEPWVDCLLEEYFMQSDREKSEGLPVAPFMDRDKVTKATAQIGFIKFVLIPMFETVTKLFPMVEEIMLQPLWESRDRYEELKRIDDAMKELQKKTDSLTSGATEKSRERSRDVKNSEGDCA
Series [15] addresses T8, Dual 3',5'-cyclic-AMP and -GMP phosphodiesterase 11A (Homo sapiens, UniProt Q9HCR9). In words: Inhibition of human PDE11A.
Series [16] deals with T9, High affinity cAMP-specific and IBMX-insensitive 3',5'-cyclic phosphodiesterase 8A (Homo sapiens, UniProt O60658). Kind of series: Inhibition of human PDE8A1 at 50 uM relative to control.
T9 sequence (O60658 whole entry): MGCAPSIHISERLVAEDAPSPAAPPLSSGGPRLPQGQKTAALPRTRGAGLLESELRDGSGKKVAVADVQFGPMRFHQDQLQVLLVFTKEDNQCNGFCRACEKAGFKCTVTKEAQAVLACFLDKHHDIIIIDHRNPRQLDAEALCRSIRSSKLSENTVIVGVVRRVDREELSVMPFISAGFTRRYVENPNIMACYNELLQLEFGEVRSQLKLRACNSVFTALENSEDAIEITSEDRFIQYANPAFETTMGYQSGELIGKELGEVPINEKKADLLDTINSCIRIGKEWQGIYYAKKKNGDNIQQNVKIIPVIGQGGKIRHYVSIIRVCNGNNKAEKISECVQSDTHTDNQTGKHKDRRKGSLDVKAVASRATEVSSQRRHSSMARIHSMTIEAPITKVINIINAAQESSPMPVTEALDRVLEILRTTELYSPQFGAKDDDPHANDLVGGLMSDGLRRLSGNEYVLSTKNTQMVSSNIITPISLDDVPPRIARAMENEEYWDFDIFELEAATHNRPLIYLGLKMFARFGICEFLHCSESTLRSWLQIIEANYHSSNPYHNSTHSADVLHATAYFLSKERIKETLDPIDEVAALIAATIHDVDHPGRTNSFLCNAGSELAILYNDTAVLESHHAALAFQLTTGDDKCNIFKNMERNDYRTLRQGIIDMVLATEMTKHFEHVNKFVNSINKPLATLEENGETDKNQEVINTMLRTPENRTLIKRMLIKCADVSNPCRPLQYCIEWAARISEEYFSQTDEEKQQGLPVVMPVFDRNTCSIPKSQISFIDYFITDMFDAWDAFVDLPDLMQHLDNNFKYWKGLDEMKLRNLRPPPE
For series [17], the target named is T10, cGMP-inhibited 3',5'-cyclic phosphodiesterase 3B (Homo sapiens, UniProt Q13370). In words: Inhibition of human PDE3B.
In series [18] the target is T6, High affinity 3',5'-cyclic-AMP phosphodiesterase 7A. In words: Inhibition of human PDE7A at 50 uM relative to control.
Series [19] has as its target T7, High affinity cGMP-specific 3',5'-cyclic phosphodiesterase 9A. Kind of series: Inhibition of human PDE9A2 at 50 uM relative to control.
Series [20] addresses T4, cAMP and cAMP-inhibited cGMP 3',5'-cyclic phosphodiesterase 10A. In words: Inhibition of human PDE10A2.
Series [21] deals with T10, cGMP-inhibited 3',5'-cyclic phosphodiesterase 3B. In words: Inhibition of human PDE3B at 50 uM relative to control.
Series [22] deals with T9, High affinity cAMP-specific and IBMX-insensitive 3',5'-cyclic phosphodiesterase 8A. Kind of series: Inhibition of human PDE8A1.
Series [23] concerns the target T8, Dual 3',5'-cyclic-AMP and -GMP phosphodiesterase 11A. Kind of series: Inhibition of human PDE11A at 50 uM relative to control.
Series [24] can be described thus: Stability in rat plasma assessed as parent compound remaining after 4 hrs. It counts as ADME, cell-free. The following applies: read-out: Stability.
The species entered for series [25] is Homo sapiens. Kind of series: Selectivity ratio of IC50 for human U937 cells-derived PDE4D to IC50 for human U937 cells-derived PDE4B.
Series [26] is described as follows: Stability in rat plasma assessed as parent compound remaining after 8 hrs. The following applies: read-out: Stability. It counts as ADME, cell-free.
For series [27], the species on record is Homo sapiens. Kind of series: Potency index, ratio of rolipram IC50 to compound IC50 for inhibition of PDE4 in human PBMC.

Chain of 3',5'-cyclic-AMP phosphodiesterase 4D (Q08499 whole entry): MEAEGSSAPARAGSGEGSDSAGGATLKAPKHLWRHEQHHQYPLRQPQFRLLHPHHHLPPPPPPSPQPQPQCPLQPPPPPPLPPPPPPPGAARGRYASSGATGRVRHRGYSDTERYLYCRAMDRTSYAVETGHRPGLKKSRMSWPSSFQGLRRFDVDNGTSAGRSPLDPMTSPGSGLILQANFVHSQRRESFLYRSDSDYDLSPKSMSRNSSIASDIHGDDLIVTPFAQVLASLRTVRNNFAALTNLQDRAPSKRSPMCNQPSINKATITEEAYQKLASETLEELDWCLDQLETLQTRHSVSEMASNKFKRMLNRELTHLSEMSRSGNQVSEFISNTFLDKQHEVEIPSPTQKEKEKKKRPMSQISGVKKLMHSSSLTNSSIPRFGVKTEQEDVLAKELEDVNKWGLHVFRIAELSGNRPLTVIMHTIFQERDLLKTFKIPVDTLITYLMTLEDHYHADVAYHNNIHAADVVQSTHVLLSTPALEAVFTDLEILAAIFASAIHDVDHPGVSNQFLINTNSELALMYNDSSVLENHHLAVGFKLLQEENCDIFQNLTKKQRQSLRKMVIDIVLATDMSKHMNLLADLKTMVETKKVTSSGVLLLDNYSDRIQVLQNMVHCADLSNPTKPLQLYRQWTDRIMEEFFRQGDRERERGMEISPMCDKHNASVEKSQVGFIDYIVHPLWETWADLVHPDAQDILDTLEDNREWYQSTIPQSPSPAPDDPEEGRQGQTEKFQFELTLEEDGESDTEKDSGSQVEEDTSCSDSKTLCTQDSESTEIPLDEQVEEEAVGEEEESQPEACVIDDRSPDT
Chain of 3',5'-cyclic-AMP phosphodiesterase 4B (Q07343 whole entry): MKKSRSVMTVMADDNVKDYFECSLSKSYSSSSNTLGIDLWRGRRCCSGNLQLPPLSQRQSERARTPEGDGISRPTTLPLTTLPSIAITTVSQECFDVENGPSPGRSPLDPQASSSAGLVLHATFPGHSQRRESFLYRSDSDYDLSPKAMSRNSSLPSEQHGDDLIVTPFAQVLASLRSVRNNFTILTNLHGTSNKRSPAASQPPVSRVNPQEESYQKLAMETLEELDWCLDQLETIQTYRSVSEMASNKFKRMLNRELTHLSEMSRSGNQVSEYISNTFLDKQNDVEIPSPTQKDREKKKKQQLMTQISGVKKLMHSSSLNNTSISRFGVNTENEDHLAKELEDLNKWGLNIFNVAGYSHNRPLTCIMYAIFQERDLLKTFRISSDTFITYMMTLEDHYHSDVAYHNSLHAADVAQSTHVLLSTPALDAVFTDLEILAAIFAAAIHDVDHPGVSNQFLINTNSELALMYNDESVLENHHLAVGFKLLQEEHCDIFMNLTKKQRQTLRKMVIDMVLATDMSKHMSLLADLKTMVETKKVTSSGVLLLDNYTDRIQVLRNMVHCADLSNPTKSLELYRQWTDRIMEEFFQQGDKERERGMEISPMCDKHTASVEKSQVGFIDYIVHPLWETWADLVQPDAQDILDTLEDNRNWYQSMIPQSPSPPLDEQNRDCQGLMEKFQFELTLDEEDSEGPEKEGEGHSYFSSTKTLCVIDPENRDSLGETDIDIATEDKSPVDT

Consider `COc1cc2c(cc1OC1CCCC1)CN(C(=O)c1ccc(Cl)cc1)CC2`, for which the figures for the IC50 in [1] and in [2] were 18.4 µM and 92.6 µM, respectively.

In turn, `CCN(CC)C(=O)C1Cc2cc(OC)c(OC3CCCC3)cc2CN1C(=O)c1ccc(OC(F)(F)F)cc1` (centres undefined) showed a 50% inhibitory concentration (IC50) in [1] of 12.7 µM.

For the molecule `COc1ccc(C(=O)N2CCc3cc(OC)c(OC4CCCC4)cc3C2)cc1OC`, the IC50 is 28.6 µM in [3], 2.85 µM in series [1] and 18.3 µM in series [2].

For `COc1ccc(C2CNC(=O)C2)cc1OC1CCCC1` (centres undefined) [ROLIPRAM], the inhibition in vivo at 10 mg/kg in the series with Rattus norvegicus worked out at 32.5%; with Mus musculus it was 41.2%.

In the case of `COc1cc2c(cc1OC1CCCC1)CN(S(=O)(=O)c1ccc(NC(C)=O)cc1)CC2`, the IC50 in series [3] is 5.75 µM; in series [4], > 100 µM; in series [6], > 100 µM; in series [1], 0.95 µM; in [9], > 100 µM; in series [11], > 100 µM. For the same molecule, the IC50 in [13] is > 100 µM; in [14] it was > 100 µM; in [2], 11.6 µM; in series [15], > 100 µM; in series [17] it was > 100 µM; in series [20], > 100 µM. Further, the IC50 in [22] is > 100 µM. For the same molecule, the inhibition was determined as 3% in [5]; 3% in series [7]; 10% in [8]; 10% in series [10]; 8% in series [12]; 11% in series [16]. The inhibition in series [18] came to 2%; in series [19], 4%; in series [21], 4%; in [23], 7%. Further, the inhibition in vivo at 10 mg/kg in the series with Rattus norvegicus was determined as 37.1%; with Mus musculus, 44.3%.

As for `CCOC(=O)C1Cc2cc(OC)c(OC3CCCC3)cc2CN1C(=O)c1ccc(OC(F)(F)F)cc1` (centres undefined), the IC50 in series [3] is 12.6 µM; in [1], 1.62 µM; in series [2] it was 32.7 µM. The remaining at 4 h in series [24] was 73.7%. Moreover, the Ratio IC50 in the series listed under Homo sapiens [25] turned out to be 21. The remaining at 8 h in series [26] came to 54.9%.

Consider `COc1cc2c(cc1OC1CCCC1)CN(C(=O)c1ccc(OC(F)(F)F)cc1)C(C(=O)O)C2` (centres undefined), for which the results for the IC50 in [3] and in [1] were 69.3 µM and 8.35 µM, respectively.

In the case of `COc1cc2c(cc1OC1CCCC1)CN(C(=O)c1ccc(OC(F)(F)F)cc1)C(C(=O)OC1CCCC1)C2` (centres undefined), the IC50 in series [1] was > 50 µM.

For `CNC(=O)C1Cc2cc(OC)c(OC3CCCC3)cc2CN1C(=O)c1ccc(OC(F)(F)F)cc1` (centres undefined), in [1], the IC50 was 16.4 µM.

Molecule `COc1cc2c(cc1OC1CCCC1)CN(C(=O)c1cccc(Cl)c1)CC2` displayed an IC50 in series [1] of 20.5 µM.

As for `COC(=O)C1Cc2cc(OC)c(OC3CCCC3)cc2CN1C(=O)c1ccc(OC(F)(F)F)cc1` (centres undefined), the IC50 in series [3] was 2.12 µM; in series [4], > 100 µM; in series [6], > 100 µM; in [1], 0.88 µM; in series [9], > 100 µM; in [11] it was > 100 µM. Further, the IC50 in series [13] is > 100 µM; in series [14], > 100 µM; in series [2], 18.4 µM; in [15], > 100 µM; in series [17], > 100 µM; in [20] it was > 100 µM. The IC50 in series [22] is > 100 µM. For the same molecule, in series [24], the remaining at 4 h came to 72.8%. Besides, the inhibition in series [5] came out at 4%; in series [7], 3%; in series [8] it was 12%; in series [10], 9%; in series [12] it was 7%; in series [16], 13%. Also, the inhibition came to 2% in series [18], 6% in [19], 5% in series [21] and 6% in series [23]. Besides, the inhibition in vivo at 10 mg/kg in the series on Rattus norvegicus was found to be 45.3%; with Mus musculus it was 50.2%. Moreover, the Ratio IC50 came to 21 in the series listed under Homo sapiens [25] and 5 in the series listed under Homo sapiens [27]. For the same molecule, the remaining at 8 h in series [26] is 51.8%.

Consider `COc1cc2c(cc1OC1CCCC1)CN(C(=O)c1ccc(OC(F)(F)F)cc1)C(C(=O)N(C)C)C2` (centres undefined), for which 8.05 µM corresponded to half-maximal inhibition in series [1] (IC50).

In the case of `COc1cc2c(cc1OC1CCCC1)CN(C(=O)c1ccc(O)cc1)CC2`, the IC50 in series [3] is 48.3 µM; in [1], 3.25 µM; in series [2], 16.3 µM.

In the case of `COc1ccc(C(=O)N2CCc3cc(OC)c(OC4CCCC4)cc3C2)cc1O`, the IC50 in series [3] was 36.6 µM; in series [1], 3.42 µM; in series [2] it was 18.6 µM.

For the molecule `COc1cccc(C(=O)N2CCc3cc(OC)c(OC4CCCC4)cc3C2)c1`, in [1], inhibition was half-maximal at 19.7 µM (IC50).

As for `COc1ccc(S(=O)(=O)N2CCc3cc(OC)c(OC4CCCC4)cc3C2)cc1`, the IC50 came out at 29.7 µM in [3], 3.1 µM in series [1] and 43.6 µM in [2].

For the molecule `COc1cc2c(cc1OC1CCCC1)CN(C(=O)c1ccc(OC(F)(F)F)cc1)CC2`, the IC50 was 9.85 µM in series [3], 1.05 µM in series [1] and 6.5 µM in [2].

Take `COc1cc2c(cc1OC1CCCC1)CN(C(=O)c1ccc(OC(F)(F)F)cc1)C(C(=O)OCc1ccccc1)C2` (centres undefined): in series [24], the remaining at 4 h amounted to 84.2%. In addition, the IC50 in series [1] is > 50 µM. Moreover, the remaining at 8 h in [26] was determined as 71.6%.

Turning to `O=C(Nc1c(Cl)cncc1Cl)c1ccc(OC(F)F)c(OCC2CC2)c1` [ROFLUMILAST], the IC50 in series [3] is 1.21 µM. In addition, the inhibition in vivo at 10 mg/kg worked out at 97.6% with Rattus norvegicus and 98.8% in the series on Mus musculus.

As for `CCCCCOC(=O)C1Cc2cc(OC)c(OC3CCCC3)cc2CN1C(=O)c1ccc(OC(F)(F)F)cc1` (centres undefined), the IC50 in series [1] is > 50 µM.

For `COc1cc2c(cc1OC1CCCC1)CN(S(=O)(=O)c1ccc(Cl)cc1)CC2`, the IC50 was determined as 11 µM in series [1] and 134 µM in [2].

Take `COc1ccc(C(=O)N2CCc3cc(OC)c(OC4CCCC4)cc3C2)cc1`: the concentration for half-maximal inhibition (IC50) in series [3] was found to be 31.3 µM; in series [1] it was 2.38 µM; in series [2], 13.3 µM.
